Where “and” joins values, the source holds several entries; their conditions need not be identical. Identical values can stand only once.
Tests used:
[1] = LNP size and polydispersity index (PDI) by dynamic light scattering (Zetasizer); format: physicochemical; conditions: for Size (nm): Formulation No. 001 (Ionizable lipid:DSPC:cholesterol:DMG-PEG2000 = 50:10:38.5:1.5, N/P 6), RNA No. 331
Description: (§1) The LNP size and polydispersity index (PDI), determined by dynamic light scattering (DLS), and zeta potential were measured by a Zetasizer machine (Malvern). RNA concentration and encapsulation efficacy (EE %) were analyzed by the Quant-IT Ribogreen kit by calculating the percentage encapsulation at 100%—(RNA-LNPs/RNA-LNPs with Triton X-100).

[2] = RNA encapsulation efficacy (EE %) by Quant-IT Ribogreen kit; format: physicochemical; conditions: LNP
Description: as §1

[3] = system: Hep G2 cells; assay: In vitro expression: luciferase activity in Hep G2 cells transfected with RNA-LNPs; format: cell-based; conditions: Formulation No. 001, RNA No. 331 (firefly-luciferase), 100 ng/mL RNA-LNPs, 72 hours post transfection
Description: 2E5 Hep G2 cells were transfected with 100 ng/mL of RNA-LNPs encoding for firefly-luciferase. At 72 hours post transfection, the cells were washed and lysed. The luciferase expression (2-well repeat) was determined in the cell lysates with the luciferase assay reagent kit (Promega), according to the kit protocol, luciferase activity was measured by a luminometer.

[4] = system: Hep G2 cells; assay: In vitro toxicity: Hep G2 cell viability by CellTiter-Glo; format: cell-based; conditions: Formulation No. 001, RNA No. 331, 1 μg/mL RNA-LNPs, 72 hours post transfection, cell only = 100%
Description: 2E5 Hep G2 cells were transfected with 1 μg/mL RNA-LNPs. At 72 hours post transfection, cell viability (2-well repeat) was determined with the CellTiter-Glo® reagent kit, according to the kit protocol, measured by a luminometer. Cell only as control (100%).
The cell viability was calculated according to the following formula: […]

[5] = system: Balb/c mice; assay: In vivo expression by IV, 0.05 mg/kg luciferase RNA-LNPs, IVIS luminescence; conditions: Formulation No. 001, RNA No. 331; female Balb/c mice, 0.05 mg*kg−1 intravenous, 24-hours post injection
Outline: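 Female Balb/c mice (7-8 weeks, N=3) received 0.05 mg*kg−1 firefly-luciferase RNA-LNPs IV. Luciferin (15 mg/ml) was given IP at 24 and 72 h post-dose for IVIS whole-body luminescence. A second run imaged whole body, liver and spleen at 24 h only.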

[6] = system: MCP-1; assay: In vivo tolerability by IV: serum MCP-1 by Luminex; set-up: species or system C57BL/6J mice; conditions: Formulation No. 001, RNA No. 331, male C57BL/6J mice, 1.0 mg*kg/1 intravenous; for MCP-1 at 2 h: 2 hours post injection; for MCP-1 at 24 h: 24 hours post injection
Outline: (§2)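 Male C57BL/6J mice aged 6-8 weeks (N=3) received 1.0 mg*kg−1 firefly-luciferase RNA-LNPs intravenously, with PBS as negative control. Serum taken at 2 and 24 h post-injection was assayed for MCP-1 and IL-6 by Luminex.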

[7] = system: IL-6; assay: In vivo tolerability by IV: serum IL-6 by Luminex; set-up: species or system C57BL/6J mice; conditions: Formulation No. 001, RNA No. 331, male C57BL/6J mice, 1.0 mg*kg/1 intravenous; for IL-6 at 2 h: 2 hours post injection; for IL-6 at 24 h: 24 hours post injection
Outline: as §2

[8] = system: C57BL/6J mice; assay: In vivo expression by IV, 1.0 mg/kg luciferase RNA-LNPs, whole-body and organ IVIS luminescence; conditions: Formulation No. 001, RNA No. 331; male C57BL/6J mice, 1.0 mg*kg−1 intravenous, 24-hours post injection
Outline: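 Male C57BL/6J mice, 6-8 weeks old (N=3), received 1.0 mg*kg−1 firefly-luciferase RNA-LNPs IV. At 24 h post-dose, luciferin (15 mg/ml) was given IP, and whole-body, liver, spleen, kidney, small and large intestine luminescence was imaged by IVIS.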

[9] = In vivo lipid metabolism by IV: ionizable lipid concentration in plasma and liver by LC-MS/MS; set-up: species or system Sprague-Dawley (SD) rats; conditions: IV 0.15 mg/kg RNA-LNPs (hEPO), male SD rats, individual animals N=3
Description: In Vivo Lipid Metabolism by IV 7-8 week old, male Sprague-Dawley (SD) rats (N=3) were injected with 0.15 mg*kg−1 of RNA-LNPs encoding for hEPO by intravenous injection. At 1-/6-/96-/168-hours post injection, about 100 μL blood will be harvested and immediately added to the EDTAK2 containing tube. Place on wet ice and then centrifuged at 3000 g×5 min to obtain plasma. 30 μL plasma will be aliquoted to the 1.5 mL tubes. At terminal 6-/168-hours post injection, the rats will be euthanized with CO2, hemorrhaged immediately with cardiac puncture, respectively. The livers were harvested, weighed and washed with saline, then put into 50 ml centrifuge tube placed in liquid nitrogen, then transferred into wet ice, and finally stored at −80° C. immediately. Both plasma and liver samples were used for ionizable lipid concentration quantification by LC-MS/MS. The lower limit of quantitation (LLOQ) is 1 ng/mL in plasma or 11 ng/g in liver. BQL—Below the lower limit of quantitation (LLOQ).

[10] = Formulation No. 001, RNA No. 019 (hEPO)
[11] = Formulation No. 001, RNA No. 331

Row | SMILES | Size (nm) [1] | PDI [1, 11] | EE (%) [2, 11] | In vitro Expression (Mean) [3] | In vitro cell viability (%) (Mean) [4] | Liver (p/s) (Mean) [5] | Spleen (p/s) (Mean) [5] | Whole body (p/s) (Mean) [5] | MCP-1 at 2 h [6] | MCP-1 at 24 h [6] | IL-6 at 2 h [7] | IL-6 at 24 h [7] | Kidney (p/s) [8] | Large intestine (p/s) [8] | Liver (p/s) [8] | Small intestine (p/s) [8] | Spleen (p/s) [8] | Whole body (p/s) [8] | also measured
1 | CCCCC/C=C\C/C=C\CCCCCCCCOC(=O)NC(COC(=O)NCCN1CCCCCC1)C(=O)OCCCCCC(=O)OCC(CCCCCCCC)CCCCCCCCCC (centres unmarked) [Lipid 911] | 64.33 nm | 0.03 | 98.24% | 5.01E+05 | 81.84% | 5.42E+08 p/s | 1.27E+08 p/s | 1.17E+09 p/s | 2000 pg/mL | 254 pg/mL | 28.5 pg/mL | 4.43 pg/mL | 3.75E+07 p/s | 8.42E+07 p/s | 7.97E+09 p/s | 6.47E+08 p/s | 8.51E+08 p/s | 7.27E+09 p/s | PDI [1, 10]: 0.05; Size [1, 10]: 58.16 nm; EE (%) [2, 10]: 94.15%; Plasma (ng/mL), ionizable lipid concentration ([9]; 1 h post injection): 7622 ng/mL and 5572 ng/mL and 3130 ng/mL; Liver (ng/g), ionizable lipid concentration ([9]; 6 h post injection): 29536 ng/g and 35435 ng/g; Plasma (ng/mL), ionizable lipid concentration ([9]; 6 h post injection): 298 ng/mL and 2.59 ng/mL and 3.41 ng/mL; Liver (ng/g), ionizable lipid concentration ([9]; 168 h post injection): 890 ng/g and 1331 ng/g and 618 ng/g; concentration at 6 h ([9]; male, Sprague-Dawley, rat, liver, iv, 0.15 mg/kg, 6 h post injection, read-out: Liver (ng/g), ionizable lipid concentration): 29400 ng/g
2 | CCCCCCCCCC(=O)OCCCCCCCOC(=O)C(COC(=O)NCCN1CCCCC1)NC(=O)OCCCCCCCCOC(=O)C(CCCCCC)CCCCCCCC (centres unmarked) [Lipid 933] | 75.47 nm | 0.02 | 92.12% | 1.26E+06 | 95.05% | 6.92E+08 p/s | 1.49E+08 p/s | 2.89E+09 p/s | 1240 pg/mL | 300 pg/mL | 68.4 pg/mL | 8.03 pg/mL | 6.08E+07 p/s | 9.52E+07 p/s | 3.90E+09 p/s | 6.36E+08 p/s | 5.98E+08 p/s | 3.45E+09 p/s | 
3 | CCCCC/C=C\C/C=C\CCCCCCCCOC(=O)NC(COC(=O)NCCN1CCCCCC1)C(=O)OCCCCCC(=O)OCCCCCCCCCCC (centres unmarked) [Lipid 939] | 104.00 nm | 0.19 | 90.23% | 3.08E+05 | 95.74% | 2.92E+08 p/s | 1.74E+08 p/s | 1.17E+09 p/s | 2440 pg/mL | 956 pg/mL | 4280 pg/mL | 9.43 pg/mL | 1.21E+07 p/s | 1.70E+08 p/s | 5.86E+07 p/s | 4.96E+08 p/s | 1.18E+08 p/s | 3.50E+09 p/s | 
4 | CCCCC/C=C\C/C=C\CCCCCCCCOC(=O)NC(COC(=O)NCCN1CCCCCC1)C(=O)OCCCCCCCOC(=O)CCCCCCCCC (centres unmarked) [Lipid 944] | 86.75 nm | 0.17 | 90.80% | 3.60E+05 | 95.62% | 5.10E+08 p/s | 1.31E+08 p/s | 1.29E+09 p/s | 3640 pg/mL | 161 pg/mL | 432 pg/mL | 2.5 pg/mL | 1.54E+07 p/s | 5.53E+07 p/s | 5.27E+08 p/s | 1.93E+08 p/s | 4.76E+08 p/s | 1.06E+09 p/s | 
5 | CCCCC/C=C\CCOC(=O)CCCCCOC(=O)C(COC(=O)NCCN1CCCCC1)NC(=O)OCCCCCCCCOC(=O)C(CCCCCC)CCCCCCCC (centres unmarked) [Lipid 954] | 83.18 nm | 0.01 | 88.46% | 4.78E+05 | 93.41% | 8.01E+08 p/s | 9.82E+07 p/s | 2.71E+09 p/s | 4780 pg/mL | 789 pg/mL | 4220 pg/mL | 8.87 pg/mL | 1.53E+08 p/s | 9.03E+08 p/s | 3.01E+09 p/s | 1.69E+09 p/s | 7.74E+08 p/s | 1.08E+10 p/s | 
6 | CCCCC/C=C\C/C=C\CCCCCCCCOC(=O)NC(COC(=O)NCCN1CCCCCC1)C(=O)OCCCCCCCCCC(=O)OCCCCCCC (centres unmarked) [Lipid 959] | 91.09 nm | 0.13 | 95.49% | 2.95E+05 | 96.03% | 1.07E+09 p/s | 2.04E+08 p/s | 3.16E+09 p/s | 1760 pg/mL | 176 pg/mL | 78.7 pg/mL | 1.8 pg/mL | 1.10E+07 p/s | 3.10E+07 p/s | 1.10E+09 p/s | 1.43E+08 p/s | 4.52E+08 p/s | 7.04E+08 p/s | 

Source: patent US20260200849A1, “CATIONIC LIPIDS AND PREPARATION METHOD THEREOF” (RiboX Therapeutics HK Limited, priority 2024, published 2026)
